Experimental data as given in patent US10906873B2, “Substituted cyclic amides as herbicides” (FMC Corporation, priority 2015, dated 2021).

Tests used:
Type in all cases: in vivo
[1] = test system: barnyardgrass (Echinochloa crus-galli); assay: Test A preemergence, barnyardgrass; conditions: 1000 g ai/ha, 0 to 100 scale
Summary of the method: (§1)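 Visual injury ratings, 0 = no effect to 100 = complete control, made versus untreated controls after about 10 d in greenhouse. Chemicals formulated in solvent mixture containing surfactant were sprayed on loam-sand soil after seeding (preemergence) or onto plants at one- to two-leaf stage, 2-10 cm (postemergence).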

[2] = test system: crabgrass (large crabgrass, Digitaria sanguinalis); assay: Test A preemergence, crabgrass; conditions: 1000 g ai/ha, 0 to 100 scale
Excerpt: (§2) Seeds of plant species selected from barnyardgrass (Echinochloa crus-galli), crabgrass (large crabgrass, Digitaria sanguinalis), kochia (Kochia scoparia), ragweed (common ragweed, Ambrosia elatior), morningglory (Ipomoea spp.), velvetleaf (Abutilon theophrasti), ryegrass, It. (Italian ryegrass, Lolium multiflorum), foxtail, giant (giant foxtail, Setaria faberii), wheat (Triticum aestivum), corn (Zea mays), and pigweed (Amaranthus retroflexus), were planted into a blend of loam soil and sand and treated preemergence with a directed soil spray using test chemicals formulated in a non-phytotoxic solvent mixture which included a surfactant. At the same time, plants selected from these crop and weed species and also blackgrass (Alopecurus myosuroides), and galium (catchweed bedstraw, Galium aparine), were planted in pots containing the same blend of loam soil and sand and treated with postemergence applications of test chemicals formulated in the same manner. Plants ranged in height from 2 to 10 cm and were in the one- to two-leaf stage for the postemergence treatment. Treated plants and untreated controls were maintained in a greenhouse for approximately 10 d, after which time all treated plants were compared to untreated controls and visually evaluated for injury. Plant response ratings, summarized in Table A, are based on a 0 to 100 scale where 0 is no effect and 100 is complete control. A dash (-) response means no test result.

[3] = test system: morningglory (Ipomoea spp.); assay: Test A preemergence, morningglory; conditions: 1000 g ai/ha, 0 to 100 scale
Excerpt: as §2

[4] = test system: velvetleaf (Abutilon theophrasti); assay: Test A preemergence, velvetleaf; conditions: 1000 g ai/ha, 0 to 100 scale
Excerpt: as §2

[5] = test system: foxtail, giant (giant foxtail, Setaria faberii); assay: Test A preemergence, foxtail, giant; conditions: 1000 g ai/ha, 0 to 100 scale
Summary of the method: as §1

[6] = test system: wheat (Triticum aestivum); assay: Test A preemergence, wheat; conditions: 1000 g ai/ha, 0 to 100 scale
Excerpt: as §2

corn (Zea mays) [7] = assay: Test A preemergence, corn; conditions: 1000 g ai/ha, 0 to 100 scale
Excerpt: as §2

[8] = test system: pigweed (Amaranthus retroflexus); assay: Test A preemergence, pigweed; conditions: 1000 g ai/ha, 0 to 100 scale
Summary of the method: as §1

[9] = test system: barnyardgrass (Echinochloa crus-galli); assay: Test A postemergence, barnyardgrass; conditions: 1000 g ai/ha, 0 to 100 scale (0 no effect, 100 complete control)
Summary of the method: as §1

[10] = test system: crabgrass (large crabgrass, Digitaria sanguinalis); assay: Test A postemergence, crabgrass; conditions: 1000 g ai/ha, 0 to 100 scale
Excerpt: as §2

[11] = test system: morningglory (Ipomoea spp.); assay: Test A postemergence, morningglory; conditions: 1000 g ai/ha, 0 to 100 scale
Excerpt: as §2

[12] = test system: velvetleaf (Abutilon theophrasti); assay: Test A postemergence, velvetleaf; conditions: 1000 g ai/ha, 0 to 100 scale
Excerpt: as §2

[13] = test system: foxtail, giant (giant foxtail, Setaria faberii); assay: Test A postemergence, foxtail, giant; conditions: 1000 g ai/ha, 0 to 100 scale
Summary of the method: as §1

[14] = test system: wheat (Triticum aestivum); assay: Test A postemergence, wheat; conditions: 1000 g ai/ha, 0 to 100 scale
Summary of the method: as §1

corn (Zea mays) [15] = assay: Test A postemergence, corn; conditions: 1000 g ai/ha, 0 to 100 scale
Summary of the method: as §1

[16] = test system: pigweed (Amaranthus retroflexus); assay: Test A postemergence, pigweed; conditions: 1000 g ai/ha, 0 to 100 scale
Summary of the method: as §1

| SMILES | Plant response rating, Barnyardgrass [1] | Plant response rating, Crabgrass [2] | Plant response rating, Morningglory [3] | Plant response rating, Velvetleaf [4] | Plant response rating, Foxtail, Giant [5] | Plant response rating, Wheat [6] | Plant response rating, Corn (corn (Zea mays) [7]) | Plant response rating, Pigweed [8] | Plant response rating, Barnyardgrass [9] | Plant response rating, Crabgrass [10] | Plant response rating, Morningglory [11] | Plant response rating, Velvetleaf [12] | Plant response rating, Foxtail, Giant [13] | Plant response rating, Wheat [14] | Plant response rating, Corn (corn (Zea mays) [15]) | Plant response rating, Pigweed [16] |
| --- | --- | --- | --- | --- | --- | --- | --- | --- | --- | --- | --- | --- | --- | --- | --- | --- |
| O=C1NCC(Cc2ccc(F)cc2)C1C(=O)Nc1ccccc1F (stereo not drawn) [Compound 14] | 20 | 80 | 0 | 0 | 30 | 0 | 0 | 0 | 0 | 20 | 0 | 0 | 0 | 0 | 0 | 0 |
| O=C1NCC(Cc2ccccc2)C1C(=O)Nc1ccccc1F (stereo not drawn) [Compound 3] | 0 | 0 | 0 | 0 | 0 | 0 | 0 | 0 | 0 | 0 | 0 | 0 | 0 | 0 | 0 | 0 |
| O=C1NCC(Cc2ccccc2)C1C(=O)Nc1cccc(F)c1F (stereo not drawn) [Compound 4] | 0 | 60 | 0 | 0 | 0 | 0 | 0 | 0 | 0 | 20 | 0 | 0 | 0 | 0 | 0 | 0 |
